Measured values from patent US6172091A, “1,2-Disubstituted cyclopropanes” (Ortho-McNeil Pharmaceutical, Inc., priority 1999, dated 2001).

Legend:
[1] = target: T1, calcium sensing receptor as found in the human parathyroid gland (Homo sapiens, UniProt P41180); assay: calcium mobilization fluorescence (FLIPR) assay, agonist mode; format: cell-based; conditions: transfected HEK 293 cells; 1 mM calcium standard; Tables 2-7; read-out: In Vitro: CS50, where potency is at 50% of the calcium standard potency
T1 construct: expressed in transfected cells; host or cells: HEK 293
T1 sequence (P41180 20-1078): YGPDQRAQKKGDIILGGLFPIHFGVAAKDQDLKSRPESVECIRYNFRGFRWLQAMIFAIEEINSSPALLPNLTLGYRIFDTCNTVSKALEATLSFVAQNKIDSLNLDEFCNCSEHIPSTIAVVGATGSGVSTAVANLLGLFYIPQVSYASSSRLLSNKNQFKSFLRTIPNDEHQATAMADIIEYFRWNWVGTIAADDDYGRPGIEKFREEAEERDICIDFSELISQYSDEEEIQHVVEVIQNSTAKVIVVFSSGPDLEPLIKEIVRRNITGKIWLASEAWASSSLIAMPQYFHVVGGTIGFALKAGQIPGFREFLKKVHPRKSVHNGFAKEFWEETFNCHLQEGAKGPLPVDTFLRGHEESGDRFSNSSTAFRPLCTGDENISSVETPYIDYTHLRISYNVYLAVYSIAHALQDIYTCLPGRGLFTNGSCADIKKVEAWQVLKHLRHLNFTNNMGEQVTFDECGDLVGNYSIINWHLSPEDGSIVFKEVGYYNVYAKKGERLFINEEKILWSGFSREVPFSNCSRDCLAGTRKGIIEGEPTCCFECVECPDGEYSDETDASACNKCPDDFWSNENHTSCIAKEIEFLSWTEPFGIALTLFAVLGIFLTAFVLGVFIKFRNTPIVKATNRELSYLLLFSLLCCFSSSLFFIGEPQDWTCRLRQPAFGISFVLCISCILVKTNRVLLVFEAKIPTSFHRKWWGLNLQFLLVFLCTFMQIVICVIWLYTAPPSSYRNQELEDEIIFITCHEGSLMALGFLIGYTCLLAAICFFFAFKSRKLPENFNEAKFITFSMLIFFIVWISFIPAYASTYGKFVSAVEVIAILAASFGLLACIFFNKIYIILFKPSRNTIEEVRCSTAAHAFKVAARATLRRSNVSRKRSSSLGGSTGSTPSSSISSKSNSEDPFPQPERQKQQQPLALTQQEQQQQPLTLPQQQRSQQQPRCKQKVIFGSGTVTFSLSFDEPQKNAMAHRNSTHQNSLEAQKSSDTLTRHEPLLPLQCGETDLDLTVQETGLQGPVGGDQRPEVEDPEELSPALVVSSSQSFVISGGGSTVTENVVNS
Procedure: (§1) In vitro potency is measured via calcium mobilization in a fluorescence assay using HEK 293 cells transfected to express the same calcium sensing receptor as found in the human parathyroid gland. In this assay calcium-sensing receptor agonists and antagonists are detected. The assay is conducted in a 96-well plate format with the use of FLIPR (fluorescent imaging plate reader; Molecular Devices, Sunnyvale, Calif.). The HEK 293 cell media is replaced with the fluorescence dye FLUO-3AM and Pluronic detergent in FLIPR assay buffer. Cells are incubated 60 min (in the dark, at room temperature), then washed with assay buffer and placed in FLIPR. Images are collected by FLIPR in the absence of test compound, then in the presence of test compound (at 25 µM) and then after addition of a calcium challenge (at 1 mM). In the agonist assay the difference between maximum and minimum fluorescence values is measured following test compound addition. Hits have a change in fluorescence greater than or equal to 50% of that seen with a 1 mM calcium standard. In the antagonist assay the difference between maximum and minimum fluorescence values is measured following the calcium challenge addition. When compared to challenge in the absence of test compound, hits reduce fluorescence by at least 50%. In vivo activity is measured via parathyroid hormone (PTH) supression by test compounds in a rat model. Compound is administered orally using 0.5% Tween 80 in distilled water as vehicle, with a volume of approximately 10 mL/kg body weight. Blood samples are taken at 15 minutes (and 4 h if required) post oral dosing. Serum PTH levels are determined with an immunoradiometric assay.
(§2) Not all compounds were tested in each of the screens. […] Each entry represents a mixture of cis and trans cyclopropanes (R,S; S,R; R,R; S,S) with R absolute configuration when R^3=CH3. Table 2 lists compounds that are trans at the cyclopropane (R,R; S,S) with R absolute configuration at the benzylamine position, or without stereochemistry at the benzylamine. Table 3 lists compounds with R,R absolute stereochemistry at the cyclopropane and a mixture of stereochemistry at the benzylamine position. 20. In vitro data in Table 1 is percent activation of the calcium-sensing receptor versus baseline. In vitro data in Tables 2-7 is expressed as a CS50, where potency is at 50% of the calcium standard potency, and the unit is μM. In vivo data represents % blood serum PTH vs. vehicle at 30 mg/kg test compound, levels measured after 15 minutes.

[2] = test system: parathyroid hormone (PTH); assay: parathyroid hormone (PTH) suppression in a rat model; format: in vivo; conditions: 30 mg/kg test compound, levels measured after 15 minutes; for change in vivo at 30 mg/kg: Rattus norvegicus, po, 0.25 h, read-out: In Vivo: % blood serum PTH vs. vehicle; for In Vivo: % blood serum PTH vs. vehicle: oral, 30 mg/kg
Procedure: as §1, §2

| EC50 [1] [µM] | Structure (SMILES) | change in vivo at 30 mg/kg [2] [%] | In Vivo: % blood serum PTH vs. vehicle [2] |
| --- | --- | --- | --- |
| 13.5 | COc1cccc([C@@H](C)NCC2CC2c2cccc(C(F)(F)F)c2)c1 (stereo partly drawn) [Compound 15] | 4.2 | – |
| 6.5 | COc1cccc([C@@H](C)NCC2CC2c2ccccn2)c1 (stereo partly drawn) [Compound 9] | – | – |
| – | COc1cccc([C@@H](C)NC[C@H]2C[C@@H]2c2cccc(F)c2)c1 [Compound 71] | -78.7 | – |
| 9.5 | COc1cccc([C@@H](C)NCC2CC2c2cccc(C)c2)c1 (stereo partly drawn) [Compound 13] | -98.2 | – |
| 11.9 | COc1cccc([C@@H](C)NCC2CC2c2c(F)cccc2F)c1 (stereo partly drawn) [Compound 24] | -85.4 | – |
| – | COc1cccc([C@@H](C)NCC2CC2c2cccc(F)c2)c1 (stereo partly drawn) [Compound 74] | – | -2.6% |
| > 25 | COc1cccc([C@@H](C)NC[C@H]2C[C@H]2c2cc(C)ccc2C)c1 [Compound 69] | -53.9 | – |
| – | COc1cccc([C@@H](C)NCC2CC2c2ccccc2)c1 (stereo partly drawn) [Compound 3] | -62.1 | – |
| 11.2 | COc1cccc([C@@H](C)NC[C@@H]2C[C@@H]2c2ccccc2)c1 [Compound 61] | 0 | – |
| > 25 | CCC(NC[C@@H]1C[C@H]1c1ccccc1)c1cccc(OC)c1 (stereo partly drawn) [Compound 43, N-((R,R)-2-phenylcyclopropanylmethyl)-1-(3-methoxyphenyl)propylamine] | -6.3 | – |
| > 25 | COc1cccc(C(C)(C)NC[C@@H]2C[C@H]2c2ccccc2)c1 [Compound 44] | -25.8 | – |
| 7.8 | COc1cccc([C@@H](C)NCC2CC2c2cccn2C)c1 (stereo partly drawn) [Compound 27] | – | – |
| 37.1 | COc1cccc([C@@H](C)NCC2CC2c2cccnc2)c1 (stereo partly drawn) [Compound 10] | – | – |
| – | COc1cccc([C@H](C)NCC2CC2c2cccc(F)c2)c1 (stereo partly drawn) [Compound 78] | – | +21.4% |
| – | COc1cccc([C@@H](C)NCC2CC2c2cc(C)ccc2C)c1 (stereo partly drawn) [Compound 1] | – | +31.4% |
| > 25 | COc1cccc([C@@H](C)NCC2CC2c2ccncc2)c1 (stereo partly drawn) [Compound 11] | – | – |

| EC50 [1] [µM] | Structure (SMILES) | change in vivo at 30 mg/kg [2] [%] | In Vivo: % blood serum PTH vs. vehicle [2] |
| --- | --- | --- | --- |
| – | COc1cccc([C@H](C)NC[C@H]2C[C@@H]2c2cccc(F)c2)c1 [Compound 75] | -0.9 | – |
| – | COc1cccc([C@H](C)NCC2CC2c2cccc(F)c2)c1 (stereo partly drawn) [Compound 77] | – | +2.1% |
| – | CC(NC[C@@H]1C[C@H]1c1ccccc1)c1cccc(OC(F)(F)F)c1 (stereo partly drawn) [Compound 39] | 0 | – |
| 3.4 | COc1cccc([C@@H](C)NCC2CC2c2ccsc2)c1 (stereo partly drawn) [Compound 26] | – | – |
| – | COc1cccc([C@@H](C)NCC2CC2c2ccc(Cl)cc2)c1 (stereo partly drawn) [Compound 6] | -9.3 | – |
| – | COc1cccc([C@@H](C)NCC2CC2c2sccc2C)c1 (stereo partly drawn) [Compound 38] | -51 | – |
| 10.9 | COc1cccc([C@@H](C)NC[C@H]2C[C@@H]2c2cccc(F)c2)c1 [Compound 21] | – | – |
| – | COc1cccc([C@@H](C)NCC2CC2c2ccc(Cl)s2)c1 (stereo partly drawn) [Compound 35] | -15.4 | – |
| – | COc1cccc([C@@H](C)NCC2CC2c2ccc(C)s2)c1 (stereo partly drawn) [Compound 36] | -34.2 | – |
| – | COc1cccc([C@@H](C)NCC2CC2c2cc(Br)cs2)c1 (stereo partly drawn) [Compound 37] | -24.8 | – |
| > 25 | COc1cccc([C@@H](C)N(C[C@@H]2C[C@H]2c2ccccc2)C(=O)C(C)(C)C)c1 [Compound 55] | – | – |
| – | COc1cccc([C@@H](C)NC[C@@H]2C[C@H]2c2cccc(F)c2)c1 [Compound 72] | – | -93.4% |
| – | COc1cccc([C@@H](C)NCC2CC2c2cccc(F)c2)c1 (stereo partly drawn) [Compound 73] | – | -52.5% |
| – | COc1cccc([C@@H](C)NCC2CC2c2ccccc2Cl)c1 (stereo partly drawn) [Compound 4] | -11.9 | – |
| – | COc1cccc([C@H](C)NC[C@@H]2C[C@H]2c2cccc(F)c2)c1 [Compound 76] | 16.8 | – |

| Structure (SMILES) | EC50 [1] [µM] | change in vivo at 30 mg/kg [2] [%] | In Vivo: % blood serum PTH vs. vehicle [2] |
| --- | --- | --- | --- |
| COc1cccc([C@@H](C)NCC2CC2c2ccc([N+](=O)[O-])cc2[N+](=O)[O-])c1 (stereo partly drawn) [Compound 34] | > 25 | – | – |
